Reference: patent publication EP1477171A1, “Intestinal mineral absorption capacity improver” (Kao Corporation, priority 2003, dated 2004)

Experiments:
[1] = pH of a 2 mass% aqueous solution; format: physicochemical
SD rats [2] = assay: duration of the intestinal calcium absorption capacity improving effect after feeding is terminated (45Ca level in plasma); format: in vivo; conditions: test diet 10 days, then control diet; for 3 days after termination; relative to the control group
Description: As in Example 1, 15 g/day of a control diet and a test diet as shown in Table 1 were fed to groups of rats (8-week-old, male, SD rats), each group consisting of 8 rats, for 10 days, respectively. The rat groups fed with the test diet were divided into three groups and as the feed after 10 days, the control diet was fed to each group and feeding of the glucose 1-phosphate sodium salt was terminated. The termination period was 1 day, 3 days and 7 days. The ^45Ca level in the blood plasma after completion of the feeding period was measured in accordance with the method of Example 1.

SD rats [3] = assay: 45Ca level in blood plasma after oral 45Ca calcium chloride in rats fed the test diet for 10 days (intestinal calcium absorption capacity); format: in vivo; conditions: test diet (1.88 mass% in feed, 15 g/day, 10 days) vs control diet; 24 h fast; plasma 30 minutes, 1 hour and 2 hours after oral ^45Ca calcium chloride; Scheffe method, significant level less than 1%
Method: Rats (8-week-old, male, SD rats), 10 rats consisting of one group, were each fed with 15 g/day of a control diet or a glucose 1-phosphate sodium salt diet as shown in Table 1 for 10 days. As the glucose 1-phosphate sodium salt, product of Solchem (Italy) was employed and the feed was adjusted to have a calcium concentration of 0.2 mass% and a P concentration of 0.4 mass%. The rats were allowed to take distilled water ad libitum.
After the rats were fasted for 24 hours, they were orally administered with 1.5 mL (containing ^45CalµCi), per average weight, of a 1 mg/mL calcium chloride solution containing ^45Ca singly. The blood plasma was obtained from about 0.5 mL of the blood collected from their carotid artery 30 minutes, 1 hour and 2 hours after administration. The ^45Ca level in 100 µL of the blood plasma was measured by a liquid scintillation counter.
A change in the ^45Ca level in 100 µL of the blood plasma separated from the […] 30 minutes, 1 hour and 2 hours after the administration of a ^45Ca-containing calcium chloride solution was statically analyzed by the Scheffe method. […]

| Molecule | pH of a 2 mass% aqueous solution [1] | ^45Ca level in the plasma after feeding was terminated (SD rats [2]) | ^45Ca level in the blood plasma (SD rats [3]) |
| --- | --- | --- | --- |
| O=P(O)(O)OC1O[C@H](CO)[C@@H](O)[C@H](O)[C@H]1O (stereo partly shown) [Glucose-1-phosphoric acid, reference compound] | 1.5 |  |  |
| glucose 1-phosphate sodium salt | about 8.0 | significant increase | statistically significant increase |
